Results: patent US12685490B2 (The Board of Trustees of the Leland Stanford Junior …, priority 2020, dated 2026)
Where two headings read alike, the source gives them in different places. Residues, ends and D or L forms follow the SMILES beside them.

Experiments:
[1] = system: IAPP cytotoxicity in RIN5fm cells; assay: MTT reduction assay: formation of β-cell damaging IAPP assemblies; format: cell-based, rat
Method: (§1) Briefly, RIN5fm cells were cultured and plated in 96-well plates as described. Solutions of IAPP alone and its mixtures with peptides were aged in ThT assay buffer as described under “ThT binding assays”. At the indicated incubation time points (24 h or 7 days) aliquots were diluted with cell culture medium and added to the cells. Following incubation with the cells for ~20 h (37° C., humified atmosphere containing 5% CO2), cell damage was verified by the MTT reduction assay.

IAPP [2] = target: T1, IAPP (Homo sapiens, UniProt P10997); assay: Thioflavin T (ThT) binding assay of IAPP fibrillogenesis; format: biochemical; conditions: for effect on IAPP amyloid self-assembly (fibrillogenesis): IAPP/peptide 1/1
T1 construct: made in house; host or cells: chemical synthesis (Fmoc solid-phase, Rink resin)
T1 sequence (P10997 34-70 limits assumed): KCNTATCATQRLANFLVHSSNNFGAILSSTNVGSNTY
Method: Of note, an incubation of LL-37 alone was also included. At the indicated time points aliquots were mixed with the ThT solution consisting of 20 μM ThT in 0.05 M glycine/NaOH (pH 8.5) and binding was determined by measuring fluorescence emission at 486 nm upon excitation at 450 nm using a Multilabel reader VictorX3 (Perkin Elmer Life Sciences). […] An aliquot of a solution consisting mostly of IAPP fibrils (fIAPP) based on ThT binding and TEM (FIGS. 18-19) (7 days aged IAPP (16.5 μM) made as above) was added to the incubations resulting in a final seed (fIAPP) concentration of 1.65 μM. Incubations of (unseeded) IAPP alone (16.5 μM) and of 10% fIAPP alone were included as controls. ThT binding was determined at the indicated time points as above. […] Solutions containing (unseeded) IAPP alone (16.5 μM), IAPP seeded with fIAPP (10%), and IAPP seeded with LL-37-treated fIAPP (10%) were made in ThT assay buffer and kinetics of fibrillogenesis were determined by the ThT binding assay as described above.

Fluos-IAPP = target: T2, Fluos-IAPP (Homo sapiens, UniProt P10997); assay: Fluorescence spectroscopic titrations; format: binding; conditions: for Kd: pH 7.4, mean (SD) of 3 binding curves, read-out: app. Kd
T2 construct: made in house; host or cells: chemical synthesis
T2 sequence (P10997 34-70 limits assumed): T1 sequence (P10997 34-70 limits assumed)
Method: Fluorescence spectroscopic titration studies were performed with a JASCO FP-6500 fluorescence spectrophotometer using a previously described experimental protocol. Briefly, excitation was at 492 nm and emission spectra were recorded between 500 and 600 nm. […] For all experiments, freshly made stocks of peptides and their fluorescently labeled analogs in HFIP were used. Measurements were performed in 10 mM sodium phosphate buffer (pH 7.4) containing 1% HFIP within 2-5 min following solution preparation at room temperature. Of note, under these conditions freshly made Fluos-IAPP (5 nM) solutions consist mostly of monomers. App. Kds were calculated using 1/1 binding models as previously described and are means (±SD) of three binding curves.

[3] = target: T3, IAPP monomers and fibrils (Homo sapiens, UniProt P10997); assay: Dot blot analysis; format: binding; conditions: FAM-LL-37 200 nM, IAPP 40 μg spotted
T3 construct: made in house; host or cells: chemical synthesis (Fmoc solid-phase, Rink resin)
T3 sequence (P10997 34-70 limits assumed): T1 sequence (P10997 34-70 limits assumed)
Method: IAPP monomers or IAPP fibrils (fIAPP) containing solutions (different amounts up to 40 μg) were spotted onto a nitrocellulose membrane. These solutions were prepared by incubating an IAPP solution (1 mg/ml) in ThT assay buffer for 0 h (“monomers”) or 24 h (“fibrils”); the presence of fibrils was confirmed by ThT binding and TEM (not shown). The membrane was washed with TBSn (20 mM Tris/HCl, 150 mM NaCl and 0.05% Tween-20), blocked with 5% milk in TBSn overnight at 10° C., and washed again with TBSn. […] Following washings with incubation buffer and TBSn, bound FAM-LL-37 was visualized with a LAS-4000mini instrument (Fujifilm). Of note, glucagon fibrils were spotted as well to control for the specificity of the observed strong binding of FAM-LL-37 to fIAPP (not shown). Glucagon fibrils were made by incubating glucagon in 10 mM HCl (2 μg/μl) (10 days) followed by neutralization with 10 mM NaOH; ThT binding and TEM confirmed fibril formation (not shown). The ThT buffer alone was also spotted to control for NSB. In addition, to control for the interference of fibril autofluorescence, a membrane containing spotted fIAPP which had been incubated in buffer alone w/o FAM-LL-37 was included in each assay; in general, fIAPP autofluorescence contributed up to 25% of the total amount of fluorescence observed in fIAPP bound to FAM-LL-37.

IAPP [4] = target: T1, IAPP; assay: Far-UV CD spectroscopy of IAPP conformation and misfolding; conditions: 1/1, 5 μM each, pH 7.4
Method: Far-UV CD studies were performed using a Jasco 715 spectropolarimeter. Spectra were recorded at room temperature between 195 and 250 nm, at 0.1 nm intervals, and with a response time of 1 second. Each spectrum is an average of 3 spectra. All CD studies were performed in aqueous 10 mM sodium phosphate buffer (pH 7.4) containing 1% HFIP (CD assay buffer) at room temperature; this assay system has been earlier developed and found to be suitable for following kinetics of IAPP (5 μM) misfolding into β-sheets and amyloid fibrils alone or in the presence of inhibitors. Briefly, peptide stocks in HFIP were freshly made (4° C.), diluted with assay buffer (room temperature) at the indicated concentrations within the cuvette, and following gentle mixing spectra were measured immediately or at the indicated incubation time points. […] The CD spectrum of IAPP at the incubation time point of 24 h (endpoint) was measured after gentle mixing to re-dissolve precipitated aggregates. The CD spectrum of the buffer was always subtracted from the CD spectra of the peptide solutions.

RIN5fm cells = format: cell-based, rat
Method: as §1

IAPP [5] = target: T1, IAPP; assay: Cross-linking, NuPAGE and Western blot; conditions: IAPP 30 μM, 1/1, pH 7.4
Method: Cross-linking studies were preformed using a previously developed assay system. […] Solutions were cross-linked using 25% aqueous glutaraldehyde (Sigma-Aldrich) and 10% aqueous trichloroacetic acid (TCA) was used to precipitate cross-linked peptides. Pellets were dissolved in reducing NuPAGE sample buffer, boiled for 5 min, and subjected to NuPAGE electrophoresis in 4-12% Bis-Tris gels with MES running buffer (Invitrogen). The same volume of each solution (same IAPP amount) was loaded in all lanes. Peptides were blotted using a XCell II Blot Module blotting system (Invitrogen).

[6] = system: autoimmune diabetes in NOD mice; conditions: prediabetic NOD mice; cited from earlier work
[7] = aged IAPP/peptide mixtures 1/1, RIN5fm cells

CC[C@H](C)[C@H](NC(=O)[C@H](CCCCN)NC(=O)[C@H](CCC(=O)O)NC(=O)[C@H](CCCCN)NC(=O)[C@H](CO)NC(=O)[C@H](CCCCN)NC(=O)[C@H](CCCNC(=N)N)NC(=O)[C@H](Cc1ccccc1)NC(=O)[C@H](Cc1ccccc1)NC(=O)[C@H](CC(=O)O)NC(=O)CNC(=O)[C@H](CC(C)C)NC(=O)[C@@H](N)CC(C)C)C(=O)NCC(=O)O [LL-37(1-14)] (H-LLGDFFRKSKEKIG-OH; N-terminus assumed)
effect on formation of cytotoxic IAPP assemblies (cell-damaging effects) [1, 7]: unable to interfere
effect on IAPP amyloid self-assembly (fibrillogenesis) (IAPP [2]; IAPP 16.5 μM): unable to interfere
Kd (Fluos-IAPP; Fluos-IAPP 5 nM): 2540 nM
weaker binding to Fluos-IAPP (Fluos-IAPP; app. Kd comparison): ~ 30 fold

FAM-LL-37: N-amino-terminal fluorescein labeled LL-37 with a 6-aminohexanoic acid spacer between FAM and the N-terminus
binding to IAPP monomers and fibrils [3]: bound both IAPP fibrils and monomers

CC[C@H](C)[C@H](NC(=O)[C@H](CCCNC(=N)N)NC(=O)[C@H](CCC(N)=O)NC(=O)[C@@H](NC(=O)[C@@H](NC(=O)[C@H](CCCNC(=N)N)NC(=O)[C@H](CCCCN)NC(=O)[C@H](Cc1ccccc1)NC(=O)[C@H](CCC(=O)O)NC(=O)[C@@H](N)CCCCN)[C@@H](C)CC)C(C)C)C(=O)N[C@@H](CCCCN)C(=O)N[C@@H](CC(=O)O)C(=O)N[C@@H](Cc1ccccc1)C(=O)N[C@@H](CC(C)C)C(=O)N[C@@H](CCCNC(=N)N)C(=O)N[C@@H](CC(N)=O)C(=O)N[C@@H](CC(C)C)C(=O)N[C@H](C(=O)N1CCC[C@H]1C(=O)N[C@@H](CCCNC(=N)N)C(=O)N[C@H](C(=O)N[C@@H](CCC(=O)O)C(=O)N[C@@H](CO)C(=O)O)[C@@H](C)O)C(C)C [LL-37(15-37)] (H-KEFKRIVQRIKDFLRNLVPRTES-OH; N-terminus assumed)
effect on formation of cytotoxic IAPP assemblies (cell-damaging effects) [1, 7]: unable to interfere
effect on IAPP amyloid self-assembly (fibrillogenesis) (IAPP [2]; IAPP 16.5 μM): unable to interfere
Kd (Fluos-IAPP; Fluos-IAPP 5 nM): 31.9 nM

CC[C@H](C)[C@H](NC(=O)[C@H](CCCCN)NC(=O)[C@H](CO)NC(=O)[C@H](Cc1ccccc1)NC(=O)[C@H](CCC(=O)O)NC(=O)[C@H](Cc1ccccc1)NC(=O)[C@H](CCCNC(=N)N)NC(=O)[C@H](CC(C)C)NC(=O)[C@H](CCCCN)NC(=O)[C@H](CC(C)C)NC(=O)CN)C(=O)N[C@@H](CCCCN)C(=O)NCC(=O)N[C@@H](CCC(=O)O)C(=O)N[C@@H](Cc1ccccc1)C(=O)N[C@@H](CC(C)C)C(=O)N[C@@H](CCCCN)C(=O)N[C@H](C(=O)N1CCC[C@H]1C(=O)N[C@@H](CCC(=O)O)C(=O)N[C@H](C(=O)N[C@@H](CCCNC(=N)N)C(=O)N[C@@H](Cc1ccccc1)C(=O)N[C@@H](CCCNC(=N)N)C(=O)N[C@@H](CC(=O)O)C(=O)N[C@H](C(=O)N[C@@H](CCCCN)C(=O)N[C@@H](CC(C)C)C(=O)N[C@@H](CCCCN)C(=O)N[C@@H](CC(=O)O)C(=O)N[C@@H](CC(N)=O)C(=O)N[C@@H](CCCNC(=N)N)C(=O)N[C@H](C(=O)N[C@@H](CO)C(=O)N[C@H](C(=O)N[C@@H](CCC(N)=O)C(=O)N[C@@H](CCCNC(=N)N)C(=O)O)C(C)C)[C@@H](C)CC)[C@@H](C)CC)C(C)C)[C@@H](C)O [scrLL-37, reference compound] (H-GLKLRFEFSKIKGEFLKTPEVRFRDIKLKDNRISVQR-OH)
effect on IAPP cytotoxicity ([1]; up to 10-fold molar excess of peptide, 7 days aged, RIN5fm cells): unable to inhibit

CC[C@H](C)[C@H](NC(=O)[C@H](CCCCN)NC(=O)[C@H](CCC(=O)O)NC(=O)[C@H](CCCCN)NC(=O)[C@H](CO)NC(=O)[C@H](CCCCN)NC(=O)[C@H](CCCNC(=N)N)NC(=O)[C@H](Cc1ccccc1)NC(=O)[C@H](Cc1ccccc1)NC(=O)[C@H](CC(=O)O)NC(=O)CNC(=O)[C@H](CC(C)C)NC(=O)[C@@H](N)CC(C)C)C(=O)NCC(=O)N[C@@H](CCCCN)C(=O)N[C@@H](CCC(=O)O)C(=O)N[C@@H](Cc1ccccc1)C(=O)N[C@@H](CCCCN)C(=O)N[C@@H](CCCNC(=N)N)C(=O)N[C@H](C(=O)N[C@H](C(=O)N[C@@H](CCC(N)=O)C(=O)N[C@@H](CCCNC(=N)N)C(=O)N[C@H](C(=O)N[C@@H](CCCCN)C(=O)N[C@@H](CC(=O)O)C(=O)N[C@@H](Cc1ccccc1)C(=O)N[C@@H](CC(C)C)C(=O)N[C@@H](CCCNC(=N)N)C(=O)N[C@@H](CC(N)=O)C(=O)N[C@@H](CC(C)C)C(=O)N[C@H](C(=O)N1CCC[C@H]1C(=O)N[C@@H](CCCNC(=N)N)C(=O)N[C@H](C(=O)N[C@@H](CCC(=O)O)C(=O)N[C@@H](CO)C(=O)O)[C@@H](C)O)C(C)C)[C@@H](C)CC)C(C)C)[C@@H](C)CC [LL-37]
effect on IAPP conformation / misfolding (IAPP [4]): strong time-dependent increase of random coil contents and no precipitation occurred
effect on formation of cytotoxic IAPP assemblies (cell-damaging effects) [1]: effectively suppressed formation of cytotoxic IAPP assemblies
IC50 ([1]; rat): 17 nM
cytotoxicity of peptide alone (RIN5fm cells): not cytotoxic
effect on IAPP amyloid self-assembly (fibrillogenesis) (IAPP [2]; IAPP 16.5 μM): effectively suppressed IAPP amyloid self-assembly
effect on seeding of IAPP fibrillogenesis by fIAPP (10%) (IAPP [2]; IAPP 16.5 μM, LL-37 1/1, 10% fIAPP seeds): fully suppressed
seeding ability of fIAPP after treatment with peptide (IAPP [2]; fIAPP incubated with LL-37 (10-fold) for 24 h, used as 10% seeds): converts them into seeding incompetent assemblies
hetero-assemblies with IAPP by cross-linking (IAPP [5]): formation of IAPP-LL-37 hetero-tetramers
increase of Fluos-IAPP fluorescence emission (Fluos-IAPP; Fluos-IAPP 5 nM, 100-fold molar excess of LL-37): 322%
Kd (Fluos-IAPP; Fluos-IAPP 5 nM): 88.1 nM

CRAMP
effect on autoimmune diabetes [6]: dampening the incidence of autoimmune diabetes
